{"source": "paper PMC11252418", "about": "“Specific glycine-dependent enzyme motion determines the potency of conformation selective inhibitors of threonyl-tRNA synthetase” (Communications Biology, 2024)", "key": {"EcThrRS_A316N": {"biological_target": "T1, EcThrRS_A316N (Escherichia coli, UniProt P0A8M3, A316N)", "T1 construct": "The E. coli ThrRS (residues 242-642, Supplementary Note 1) wild type; 6xHis (C); made in house; host or cells: E. coli BL21 (DE3)", "T1 sequence (P0A8M3 242-642 A316N)": "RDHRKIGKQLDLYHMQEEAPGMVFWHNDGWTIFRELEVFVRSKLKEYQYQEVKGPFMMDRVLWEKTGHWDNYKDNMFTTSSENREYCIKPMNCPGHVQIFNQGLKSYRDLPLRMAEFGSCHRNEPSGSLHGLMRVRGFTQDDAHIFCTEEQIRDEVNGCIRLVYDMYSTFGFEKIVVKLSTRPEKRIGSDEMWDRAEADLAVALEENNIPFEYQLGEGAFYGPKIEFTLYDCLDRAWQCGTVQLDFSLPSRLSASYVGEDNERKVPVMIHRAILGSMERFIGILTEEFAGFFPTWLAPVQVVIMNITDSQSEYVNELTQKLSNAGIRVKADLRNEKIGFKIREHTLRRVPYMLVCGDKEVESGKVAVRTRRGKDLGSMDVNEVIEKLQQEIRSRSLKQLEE", "test": "Thermal shift assay (TSA)", "assay_type": "binding", "procedure": "(§1) The EcThrRS_WT and L489M/G463S/G463S_Q484A/G463A/A316N mutant proteins, ObaO_WT and ObaO_S464G mutant proteins were prepared at 2 μM in buffer containing 25 mM Tris-HCl pH 7.5, 200 mM NaCl, and 20 μM OB (GlpBio, US) or BN (GlpBio, US) or ddH2O in equal volumes since the compounds were diluted with ddH2O to 1 mM as stocks. […] SYPRO orange dye (Sigma, USA) was diluted in assay buffer containing 25 mM Tris-HCl pH 7.5 and 200 mM NaCl to a 40× concentration, and was added to the mixture to a final 4× concentration. Aliquots (20 μL) were added to a 96-well PCR plate. After complete mixing, the final solutions were heated from 25 to 95 °C at a rate of 0.015 °C/s, and fluorescence signals were monitored by QuantStudio 3 (Applied Biosystems by Thermo Fisher Scientific, USA). The melting temperature (Tm) was calculated through a previously established method[56],[57]."}, "EcThrRS_G463A": {"biological_target": "T2, EcThrRS_G463A (Escherichia coli, UniProt P0A8M3, G463A)", "T2 construct": "The E. coli ThrRS (residues 242-642, Supplementary Note 1) wild type; 6xHis (C); made in house; host or cells: E. coli BL21 (DE3)", "T2 sequence (P0A8M3 242-642 G463A)": "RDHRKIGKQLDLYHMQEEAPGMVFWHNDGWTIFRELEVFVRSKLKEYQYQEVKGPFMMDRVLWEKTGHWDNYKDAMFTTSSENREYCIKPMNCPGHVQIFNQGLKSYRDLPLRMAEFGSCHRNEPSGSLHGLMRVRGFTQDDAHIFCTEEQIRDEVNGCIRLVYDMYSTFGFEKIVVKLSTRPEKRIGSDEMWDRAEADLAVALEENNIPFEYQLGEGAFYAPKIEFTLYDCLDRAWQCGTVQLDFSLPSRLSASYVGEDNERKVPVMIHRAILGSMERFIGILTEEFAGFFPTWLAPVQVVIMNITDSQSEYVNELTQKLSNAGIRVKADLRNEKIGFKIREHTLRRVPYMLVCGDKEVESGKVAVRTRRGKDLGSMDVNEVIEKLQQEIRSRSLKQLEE", "test": "Thermal shift assay (TSA)", "assay_type": "binding", "procedure": "as §1"}, "EcThrRS_G463S": {"biological_target": "T3, EcThrRS_G463S (Escherichia coli, UniProt P0A8M3, G463S)", "T3 construct": "The E. coli ThrRS (residues 242-642, Supplementary Note 1) wild type; 6xHis (C); made in house; host or cells: E. coli BL21 (DE3)", "T3 sequence (P0A8M3 242-642 G463S)": "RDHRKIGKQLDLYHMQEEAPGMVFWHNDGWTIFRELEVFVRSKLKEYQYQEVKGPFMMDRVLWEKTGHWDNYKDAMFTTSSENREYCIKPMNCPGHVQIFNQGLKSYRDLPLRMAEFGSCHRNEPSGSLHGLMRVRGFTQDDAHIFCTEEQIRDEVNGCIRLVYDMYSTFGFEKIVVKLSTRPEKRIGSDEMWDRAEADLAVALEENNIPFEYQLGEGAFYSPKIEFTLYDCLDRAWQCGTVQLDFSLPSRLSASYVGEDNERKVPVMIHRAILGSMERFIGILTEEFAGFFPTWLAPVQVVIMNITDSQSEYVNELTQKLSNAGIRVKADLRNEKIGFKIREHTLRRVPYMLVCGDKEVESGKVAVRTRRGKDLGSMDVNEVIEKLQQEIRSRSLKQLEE", "test": "Thermal shift assay (TSA)", "assay_type": "binding", "procedure": "as §1"}, "EcThrRS_G463S_Q484A": {"biological_target": "T4, EcThrRS_G463S_Q484A (Escherichia coli, UniProt P0A8M3, G463S/Q484A)", "T4 construct": "The E. coli ThrRS (residues 242-642, Supplementary Note 1) wild type; 6xHis (C); made in house; host or cells: E. coli BL21 (DE3)", "T4 sequence (P0A8M3 242-642 G463S/Q484A)": "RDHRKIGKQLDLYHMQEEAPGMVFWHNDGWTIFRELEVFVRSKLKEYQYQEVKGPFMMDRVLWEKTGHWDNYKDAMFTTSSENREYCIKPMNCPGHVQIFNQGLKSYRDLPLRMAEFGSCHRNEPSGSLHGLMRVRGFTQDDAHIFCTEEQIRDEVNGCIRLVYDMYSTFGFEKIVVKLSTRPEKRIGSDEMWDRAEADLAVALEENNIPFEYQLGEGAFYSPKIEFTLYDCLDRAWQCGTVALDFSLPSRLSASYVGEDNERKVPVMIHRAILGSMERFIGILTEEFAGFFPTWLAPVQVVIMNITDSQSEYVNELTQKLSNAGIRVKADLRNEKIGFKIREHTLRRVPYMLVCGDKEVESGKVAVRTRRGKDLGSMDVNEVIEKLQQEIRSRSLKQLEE", "test": "Thermal shift assay (TSA)", "assay_type": "binding", "procedure": "as §1"}, "EcThrRS_L489M": {"biological_target": "T5, EcThrRS_L489M (Escherichia coli, UniProt P0A8M3, L489M)", "T5 construct": "The E. coli ThrRS (residues 242-642, Supplementary Note 1) wild type; 6xHis (C); made in house; host or cells: E. coli BL21 (DE3)", "T5 sequence (P0A8M3 242-642 L489M)": "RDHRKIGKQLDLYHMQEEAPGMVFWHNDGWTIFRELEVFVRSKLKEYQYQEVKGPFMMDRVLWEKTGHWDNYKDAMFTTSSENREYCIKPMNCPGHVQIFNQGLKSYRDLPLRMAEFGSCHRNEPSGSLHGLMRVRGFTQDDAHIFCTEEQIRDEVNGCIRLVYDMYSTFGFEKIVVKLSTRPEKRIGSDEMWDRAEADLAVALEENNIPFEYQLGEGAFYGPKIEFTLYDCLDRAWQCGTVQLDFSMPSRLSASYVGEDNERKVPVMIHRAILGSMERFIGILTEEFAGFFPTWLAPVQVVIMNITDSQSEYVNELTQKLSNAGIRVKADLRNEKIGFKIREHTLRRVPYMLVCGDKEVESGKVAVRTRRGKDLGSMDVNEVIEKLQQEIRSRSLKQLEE", "test": "Thermal shift assay (TSA)", "assay_type": "binding", "procedure": "as §1"}, "ObaO_S464G": {"tested_on": "ObaO_S464G", "test": "ATP hydrolysis assay", "assay_type": "biochemical, Pseudomonas fluorescens", "details": "for ATP hydrolysis activity, inhibitory curve data point: OB, replicates, sheet Fig.S11b", "procedure": "(§2) 200 nM EcThrRS wide type and mutants, ObaO and ObaO_S464G mutant were incubated with serially diluted OB (0 to 10 μM for EcThrRS, 0 to 40 μM for ObaO) in a buffer containing 25 mM HEPES pH 7.5, 50 mM NaCl, 40 mM MgCl2, 30 mM KCl, 0.01 mg/mL bovine serum albumin (BSA), and 0.004% Tween-20 at 37 °C for 4 h and then mixed 1:1 with a substrate mixture containing 4 μM ATP, 40 μM L-threonine, 25 mM HEPES pH 7.5, 50 mM NaCl, 40 mM MgCl2, 30 mM KCl, 0.01 mg/mL BSA, and 0.004% Tween-20. The ATP hydrolysis reaction was performed at 37 °C for 4 h.\n(§3) After incubation, the detection solution from the Kinase-Glo® luminescent kit (Promega, USA) was added to the reaction system at a 1:1 ratio, and the mixture was gently shaken for 10 min. The chemiluminescence signal was measured using a microplate reader (Tecan, USA). All experiments were performed in four replicates. The data were processed using GraphPad Prism 8 software."}, "ObaO_WT": {"tested_on": "ObaO_WT", "test": "ATP hydrolysis assay", "assay_type": "biochemical, Pseudomonas fluorescens", "details": "for ATP hydrolysis activity, inhibitory curve data point: OB, replicates, sheet Fig.S11b", "procedure": "as §2, §3"}, "[1]": {"details": "2 μM protein, 20 μM compound, mean n = 4, read-out: ΔTm (increase of Tm)"}}, "note": "Values joined by “and” are separate entries in the source; they are usually repeats but may differ in a detail not shown here. Equal entries are not always repeated. Where two headings read alike, the source gives them in different places."}
{"compound": "O=C(N[C@@H]1C(=O)O[C@@H]1Cc1ccc([N+](=O)[O-])cc1)c1cccc(O)c1O", "note": "[OB, Obafluorin]", "values": [{"measurement": "ΔTm at 20 µM", "setting": "EcThrRS_A316N; [1]", "result": 33.4, "unit": "°C"}, {"measurement": "ΔTm at 20 µM", "setting": "EcThrRS_A316N; source data sheet Fig.S4a, ThrRS_A316N, read-out: ΔTm, single replicates", "result": 33.4, "unit": "°C"}, {"measurement": "ΔTm at 20 µM", "setting": "EcThrRS_G463A; [1]", "result": 19.5, "unit": "°C"}, {"measurement": "ΔTm less than that of EcThrRS_WT", "setting": "EcThrRS_G463A; EcThrRS_G463A vs WT, same compound", "result": 14.0, "unit": "°C"}, {"measurement": "ΔTm less than that increased by 36j", "setting": "EcThrRS_G463A; difference OB vs 36j on EcThrRS_G463A", "result": 1.3, "unit": "°C"}, {"measurement": "ΔTm at 20 µM", "setting": "EcThrRS_G463A; source data sheet Fig.5a, ThrRS_G463A, read-out: ΔTm, single replicates", "result": 20.4, "unit": "°C"}, {"measurement": "ΔTm at 20 µM", "setting": "EcThrRS_G463S; [1]", "result": 13.3, "unit": "°C"}, {"measurement": "ΔTm at 20 µM", "setting": "EcThrRS_G463S; source data sheet Fig.2a, ThrRS_G463S, read-out: ΔTm, single replicates", "result": 16.1, "unit": "°C"}, {"measurement": "ΔTm at 20 µM", "setting": "EcThrRS_G463S_Q484A; [1]", "result": 17.2, "unit": "°C"}, {"measurement": "ΔTm less than the effect of 36j", "setting": "EcThrRS_G463S_Q484A; difference OB vs 36j on EcThrRS_G463S_Q484A", "result": 10, "unit": "°C"}, {"measurement": "ΔTm at 20 µM", "setting": "EcThrRS_G463S_Q484A; source data sheet Fig.3c, ThrRS_G463S_Q484A, read-out: ΔTm, single replicates", "result": 17.5, "unit": "°C"}, {"measurement": "ΔTm at 20 µM", "setting": "EcThrRS_L489M; [1]", "result": 22.6, "unit": "°C"}, {"measurement": "ΔTm at 20 µM", "setting": "EcThrRS_L489M; source data sheet Fig.2a, ThrRS_L489M, read-out: ΔTm, single replicates", "result": 23, "unit": "°C"}, {"measurement": "IC50", "setting": "ObaO_S464G; ATP hydrolysis activity", "result": 3.9, "unit": "µM"}, {"measurement": "ATP hydrolysis activity, inhibitory curve data point", "setting": "ObaO_S464G; Log10 Conc. 1.290, ObaO_S464G", "result": "99.512 and 99.495 and 99.321 and 98.415"}, {"measurement": "ATP hydrolysis activity, inhibitory curve data point", "setting": "ObaO_S464G; Log10 Conc. 1.591, ObaO_S464G", "result": "100.192 and 100.232 and 100.159 and 99.124"}, {"measurement": "ATP hydrolysis activity, inhibitory curve data point", "setting": "ObaO_S464G; Log10 Conc. 1.892, ObaO_S464G", "result": "100.052 and 100.356 and 99.951 and 99.355"}, {"measurement": "ATP hydrolysis activity, inhibitory curve data point", "setting": "ObaO_S464G; Log10 Conc. 2.193, ObaO_S464G", "result": "99.838 and 99.793 and 100.063 and 99.551"}, {"measurement": "ATP hydrolysis activity, inhibitory curve data point", "setting": "ObaO_S464G; Log10 Conc. 2.494, ObaO_S464G", "result": "100.255 and 99.793 and 99.917 and 100.035"}, {"measurement": "ATP hydrolysis activity, inhibitory curve data point", "setting": "ObaO_S464G; Log10 Conc. 2.796, ObaO_S464G", "result": "99.484 and 99.326 and 99.169 and 98.438"}, {"measurement": "ATP hydrolysis activity, inhibitory curve data point", "setting": "ObaO_S464G; Log10 Conc. 3.097, ObaO_S464G", "result": "97.897 and 97.852 and 97.621 and 97.352"}, {"measurement": "ATP hydrolysis activity, inhibitory curve data point", "setting": "ObaO_S464G; Log10 Conc. 3.398, ObaO_S464G", "result": "93.815 and 92.992 and 93.578 and 91.403"}, {"measurement": "ATP hydrolysis activity, inhibitory curve data point", "setting": "ObaO_S464G; Log10 Conc. 3.699, ObaO_S464G", "result": "77.343 and 76.749 and 76.793 and 77.009"}, {"measurement": "ATP hydrolysis activity, inhibitory curve data point", "setting": "ObaO_S464G; Log10 Conc. 4.000, ObaO_S464G", "result": "40.598 and 39.832 and 38.831 and 45.976"}, {"measurement": "ATP hydrolysis activity, inhibitory curve data point", "setting": "ObaO_S464G; Log10 Conc. 4.301, ObaO_S464G", "result": "-1.615 and -1.887 and 0.161 and 3.342"}, {"measurement": "inhibitory effect", "setting": "ObaO_WT; ATP hydrolysis activity", "result": "no inhibitory effect"}, {"measurement": "ATP hydrolysis activity, inhibitory curve data point", "setting": "ObaO_WT; Log10 Conc. 1.290, ObaO_WT", "result": "107.974 and 109.176 and 107.694 and 98.285"}, {"measurement": "ATP hydrolysis activity, inhibitory curve data point", "setting": "ObaO_WT; Log10 Conc. 1.591, ObaO_WT", "result": "108.081 and 109.543 and 108.587 and 102.335"}, {"measurement": "ATP hydrolysis activity, inhibitory curve data point", "setting": "ObaO_WT; Log10 Conc. 1.892, ObaO_WT", "result": "104.532 and 105.736 and 104.839 and 104.593"}, {"measurement": "ATP hydrolysis activity, inhibitory curve data point", "setting": "ObaO_WT; Log10 Conc. 2.193, ObaO_WT", "result": "105.347 and 104.330 and 104.759 and 104.369"}, {"measurement": "ATP hydrolysis activity, inhibitory curve data point", "setting": "ObaO_WT; Log10 Conc. 2.494, ObaO_WT", "result": "105.496 and 103.616 and 104.222 and 104.732"}, {"measurement": "ATP hydrolysis activity, inhibitory curve data point", "setting": "ObaO_WT; Log10 Conc. 2.796, ObaO_WT", "result": "106.437 and 103.177 and 103.705 and 104.207"}, {"measurement": "ATP hydrolysis activity, inhibitory curve data point", "setting": "ObaO_WT; Log10 Conc. 3.097, ObaO_WT", "result": "106.181 and 102.182 and 103.687 and 102.015"}, {"measurement": "ATP hydrolysis activity, inhibitory curve data point", "setting": "ObaO_WT; Log10 Conc. 3.398, ObaO_WT", "result": "106.327 and 105.039 and 104.877 and 99.875"}, {"measurement": "ATP hydrolysis activity, inhibitory curve data point", "setting": "ObaO_WT; Log10 Conc. 3.699, ObaO_WT", "result": "106.394 and 102.812 and 104.598 and 101.892"}, {"measurement": "ATP hydrolysis activity, inhibitory curve data point", "setting": "ObaO_WT; Log10 Conc. 4.000, ObaO_WT", "result": "107.419 and 105.942 and 102.834 and 91.914"}, {"measurement": "ATP hydrolysis activity, inhibitory curve data point", "setting": "ObaO_WT; Log10 Conc. 4.301, ObaO_WT", "result": "100.516 and 99.049 and 100.129 and 101.285"}]}
